Data on 3 compounds can be found in PubChem BioAssay AID1259407 (Chemical Carcinogenesis Research Information System (CCRIS), 2018).

The source made the active and inactive calls. No rule for the calls is given here.

The subject of the data set is CCRIS mutagenicity, Ames/micronucleus/aberration tests. Briefly: CCRIS mutagenicity studies.

With `COc1cc(-c2ccc(N=C=O)c(OC)c2)ccc1N=C=O`, the mutagenic call is, setting by setting: (Test System: AMES SALMONELLA TYPHIMURIUM, Strain/Indicator: TA98, Metabolic Activation: HAMSTER, LIVER, S-9, AROCLOR 1254, Method: STANDARD PLATE) “active; positive”; (Test System: AMES SALMONELLA TYPHIMURIUM, Strain/Indicator: TA98, Metabolic Activation: HAMSTER, LIVER, S-9, Method: STANDARD PLATE) “active; positive”; (Test System: AMES SALMONELLA TYPHIMURIUM, Strain/Indicator: TA98, Metabolic Activation: MOUSE, LIVER, S-9, AROCLOR 1254, Method: STANDARD PLATE) “active; positive”; (Test System: AMES SALMONELLA TYPHIMURIUM, Strain/Indicator: TA98, Metabolic Activation: MOUSE, LIVER, S-9, Method: STANDARD PLATE) “active; positive”; (Test System: AMES SALMONELLA TYPHIMURIUM, Strain/Indicator: TA98, Metabolic Activation: RAT, LIVER, S-9, AROCLOR 1254, Method: STANDARD PLATE) “active; positive”; (Test System: AMES SALMONELLA TYPHIMURIUM, Strain/Indicator: TA98, Metabolic Activation: RAT, LIVER, S-9, Method: STANDARD PLATE) “active; positive”. Further, the mutagenic call (Test System: AMES SALMONELLA TYPHIMURIUM, Strain/Indicator: TA100, Metabolic Activation: HAMSTER, LIVER, S-9, AROCLOR 1254, Method: STANDARD PLATE) is “inactive; negative”; the mutagenic call (Test System: AMES SALMONELLA TYPHIMURIUM, Strain/Indicator: TA100, Metabolic Activation: HAMSTER, LIVER, S-9, Method: STANDARD PLATE) was “inactive; negative”; the mutagenic call (Test System: AMES SALMONELLA TYPHIMURIUM, Strain/Indicator: TA100, Metabolic Activation: MOUSE, LIVER, S-9, AROCLOR 1254, Method: STANDARD PLATE) was “inactive; negative”; the mutagenic call (Test System: AMES SALMONELLA TYPHIMURIUM, Strain/Indicator: TA100, Metabolic Activation: MOUSE, LIVER, S-9, Method: STANDARD PLATE) is “inactive; negative”; the mutagenic call (Test System: AMES SALMONELLA TYPHIMURIUM, Strain/Indicator: TA100, Metabolic Activation: NONE, Method: STANDARD PLATE) was “inactive; negative”; the mutagenic call (Test System: AMES SALMONELLA TYPHIMURIUM, Strain/Indicator: TA1535, Metabolic Activation: HAMSTER, LIVER, S-9, AROCLOR 1254, Method: STANDARD PLATE) is “inactive; negative”. For the same compound, the mutagenic call (Test System: AMES SALMONELLA TYPHIMURIUM, Strain/Indicator: TA1535, Metabolic Activation: HAMSTER, LIVER, S-9, Method: STANDARD PLATE) is “inactive; negative”; the mutagenic call (Test System: AMES SALMONELLA TYPHIMURIUM, Strain/Indicator: TA1535, Metabolic Activation: MOUSE, LIVER, S-9, AROCLOR 1254, Method: STANDARD PLATE) is “inactive; negative”; the mutagenic call (Test System: AMES SALMONELLA TYPHIMURIUM, Strain/Indicator: TA1535, Metabolic Activation: MOUSE, LIVER, S-9, Method: STANDARD PLATE) was “inactive; negative”; the mutagenic call (Test System: AMES SALMONELLA TYPHIMURIUM, Strain/Indicator: TA1535, Metabolic Activation: NONE, Method: STANDARD PLATE) is “inactive; negative”; the mutagenic call (Test System: AMES SALMONELLA TYPHIMURIUM, Strain/Indicator: TA1535, Metabolic Activation: RAT, LIVER, S-9, AROCLOR 1254, Method: STANDARD PLATE) is “inactive; negative”; the mutagenic call (Test System: AMES SALMONELLA TYPHIMURIUM, Strain/Indicator: TA1535, Metabolic Activation: RAT, LIVER, S-9, Method: STANDARD PLATE) is “inactive; negative”. Besides, the mutagenic call is “inactive; negative” (Test System: AMES SALMONELLA TYPHIMURIUM, Strain/Indicator: TA1537, Metabolic Activation: HAMSTER, LIVER, S-9, AROCLOR 1254, Method: STANDARD PLATE); “inactive; negative” (Test System: AMES SALMONELLA TYPHIMURIUM, Strain/Indicator: TA1537, Metabolic Activation: HAMSTER, LIVER, S-9, Method: STANDARD PLATE); “inactive; negative” (Test System: AMES SALMONELLA TYPHIMURIUM, Strain/Indicator: TA1537, Metabolic Activation: MOUSE, LIVER, S-9, AROCLOR 1254, Method: STANDARD PLATE); “inactive; negative” (Test System: AMES SALMONELLA TYPHIMURIUM, Strain/Indicator: TA1537, Metabolic Activation: MOUSE, LIVER, S-9, Method: STANDARD PLATE); “inactive; negative” (Test System: AMES SALMONELLA TYPHIMURIUM, Strain/Indicator: TA1537, Metabolic Activation: NONE, Method: STANDARD PLATE); “inactive; negative” (Test System: AMES SALMONELLA TYPHIMURIUM, Strain/Indicator: TA1537, Metabolic Activation: RAT, LIVER, S-9, AROCLOR 1254, Method: STANDARD PLATE). Moreover, the mutagenic call is, setting by setting: (Test System: AMES SALMONELLA TYPHIMURIUM, Strain/Indicator: TA1537, Metabolic Activation: RAT, LIVER, S-9, Method: STANDARD PLATE) “inactive; negative”; (Test System: AMES SALMONELLA TYPHIMURIUM, Strain/Indicator: TA1538, Metabolic Activation: HAMSTER, LIVER, S-9, AROCLOR 1254, Method: STANDARD PLATE) “active; positive”; (Test System: AMES SALMONELLA TYPHIMURIUM, Strain/Indicator: TA1538, Metabolic Activation: HAMSTER, LIVER, S-9, Method: STANDARD PLATE) “active; positive”; (Test System: AMES SALMONELLA TYPHIMURIUM, Strain/Indicator: TA1538, Metabolic Activation: MOUSE, LIVER, S-9, AROCLOR 1254, Method: STANDARD PLATE) “active; positive”; (Test System: AMES SALMONELLA TYPHIMURIUM, Strain/Indicator: TA1538, Metabolic Activation: MOUSE, LIVER, S-9, Method: STANDARD PLATE) “active; positive”; (Test System: AMES SALMONELLA TYPHIMURIUM, Strain/Indicator: TA1538, Metabolic Activation: RAT, LIVER, S-9, AROCLOR 1254, Method: STANDARD PLATE) “active; positive”. Besides, the mutagenic call was “active; positive” (Test System: AMES SALMONELLA TYPHIMURIUM, Strain/Indicator: TA1538, Metabolic Activation: RAT, LIVER, S-9, Method: STANDARD PLATE); “inactive; negative” (Test System: E. COLI, Strain/Indicator: WP2 UVRA, Metabolic Activation: HAMSTER, LIVER, S-9, AROCLOR 1254, Method: STANDARD PLATE); “inactive; negative” (Test System: E. COLI, Strain/Indicator: WP2 UVRA, Metabolic Activation: HAMSTER, LIVER, S-9, Method: STANDARD PLATE); “inactive; negative” (Test System: E. COLI, Strain/Indicator: WP2 UVRA, Metabolic Activation: MOUSE, LIVER, S-9, AROCLOR 1254, Method: STANDARD PLATE); “inactive; negative” (Test System: E. COLI, Strain/Indicator: WP2 UVRA, Metabolic Activation: MOUSE, LIVER, S-9, Method: STANDARD PLATE); “inactive; negative” (Test System: E. COLI, Strain/Indicator: WP2 UVRA, Metabolic Activation: NONE, Method: STANDARD PLATE). Besides, the mutagenic call reads like this: (Test System: E. COLI, Strain/Indicator: WP2 UVRA, Metabolic Activation: RAT, LIVER, S-9, AROCLOR 1254, Method: STANDARD PLATE) “inactive; negative”; (Test System: E. COLI, Strain/Indicator: WP2 UVRA, Metabolic Activation: RAT, LIVER, S-9, Method: STANDARD PLATE) “inactive; negative”.
For the compound `O=[N+]([O-])c1nc2ccccc2[nH]1`, the mutagenic call (Test System: AMES SALMONELLA TYPHIMURIUM, Strain/Indicator: TA98, Metabolic Activation: NONE, Method: STANDARD PLATE) was “active; positive”.
Take `CCOC(=O)Nc1cccc(OC(=O)Nc2ccccc2)c1`: the mutagenic call reads like this: (Test System: Ames Salmonella typhimurium, Strain/Indicator: TA98, Metabolic Activation: None) “inactive; negative”; (Test System: Ames Salmonella typhimurium, Strain/Indicator: TA98, Metabolic Activation: Rat, Liver, S-9) “inactive; negative”; (Test System: Ames Salmonella typhimurium, Strain/Indicator: TA100, Metabolic Activation: None) “inactive; negative”; (Test System: Ames Salmonella typhimurium, Strain/Indicator: TA100, Metabolic Activation: Rat, Liver, S-9) “inactive; negative”; (Test System: Ames Salmonella typhimurium, Strain/Indicator: TA1535, Metabolic Activation: None) “inactive; negative”; (Test System: Ames Salmonella typhimurium, Strain/Indicator: TA1535, Metabolic Activation: Rat, Liver, S-9) “inactive; negative”. In addition, the mutagenic call is “inactive; negative” (Test System: Ames Salmonella typhimurium, Strain/Indicator: TA1537, Metabolic Activation: None); “inactive; negative” (Test System: Ames Salmonella typhimurium, Strain/Indicator: TA1537, Metabolic Activation: Rat, Liver, S-9); “inactive; negative” (Test System: E. coli, Strain/Indicator: WP2, Metabolic Activation: None, Method: Not reported by DPR); “inactive; negative” (Test System: E. coli, Strain/Indicator: WP2, Metabolic Activation: Rat, Liver, S-9, Method: Not reported by DPR).
